Measurements from US20160263087A1, “NOVEL 4-(INDOL-3-YL)-PYRAZOLE DERIVATIVES, PHARMACEUTICAL COMPOSITIONS AND METHODS FOR USE” (ITEOS THERAPEUTICS, priority 2013, published 2016).

Molecular target: T1, human TDO2 (Homo sapiens, UniProt P48775)
Test: Assay for TDO2 enzymatic activity determination
Assay type: biochemical
Parameters: made in house
Conditions: human recombinant TDO2, L-Trp 1 mM, room temperature, one hour, kynurenine absorbance at 480 nm
Experimental: To measure the TDO2 activity, the reaction mixture contained (final concentrations) potassium phosphate buffer (50 mM, pH 7.5), ascorbic acid (0.25 M), methylene blue (0.125 μM), catalase (40 units/mL, from bovine liver, Sigma), and human recombinant TDO2 enzyme (prepared as described in Dolusic et al. J. Med. Chem.; 2011, 54, 5320-5334; 0.9 μg) without or with the compounds of the present invention at the indicated concentrations (total volume 112.5 μL). The reaction was initiated by the addition of 37.5 μL of L-Trp (final concentration 1 mM) at room temperature. The reaction was conducted at room temperature during one hour and stopped by the addition of 30 μL of 30% (w/v) trichloroacetic acid.
To convert N-formylkynurenine into kynurenine, the reaction mixture was incubated at 65° C. for 30 min. Then 150 μL of the reaction mixture was mixed with 120 μL of 2.5% (w/v) 4-(dimethylamino)-benzaldehyde in acetic acid and incubated for 5 min at room temperature. Kynurenine concentrations were determined by measuring the absorbance at 480 nm. A standard curve was made with pure kynurenine. The TDO activity was measured as described above using ten serial concentrations of the compounds of the present invention. Data were fitted using the Prism software (GraphPad Software, Inc.).

T1 sequence (P48775 whole entry): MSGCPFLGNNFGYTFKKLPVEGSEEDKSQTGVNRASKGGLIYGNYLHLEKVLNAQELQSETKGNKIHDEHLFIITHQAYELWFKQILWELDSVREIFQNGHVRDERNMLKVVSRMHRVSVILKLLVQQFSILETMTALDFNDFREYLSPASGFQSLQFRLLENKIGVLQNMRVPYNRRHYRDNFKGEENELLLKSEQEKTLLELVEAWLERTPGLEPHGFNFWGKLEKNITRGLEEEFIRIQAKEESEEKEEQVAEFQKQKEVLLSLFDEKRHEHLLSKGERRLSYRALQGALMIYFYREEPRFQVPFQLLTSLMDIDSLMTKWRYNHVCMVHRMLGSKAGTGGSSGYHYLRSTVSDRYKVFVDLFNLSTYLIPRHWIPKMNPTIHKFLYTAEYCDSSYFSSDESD

Question: For `Cc1c(-c2c[nH]c3cc(F)ccc23)cnn1CC1CCNCC1` [Compound 57, 6-fluoro-3-(5-methyl-1-(piperidin-4-ylmethyl)-1H-pyrazol-4-yl)-1H-indole], which IC50 is on record?
Answer: Its IC50 is 1 to 10 µM.

Question: With `OC1(Cn2cc(-c3c[nH]c4cc(F)ccc34)cn2)CCOCC1` [Compound 59, 4-((4-(6-fluoro-1H-indol-3-yl)-1H-pyrazol-1-yl)methyl)tetrahydro-2H-pyran-4-ol] as the compound, how does the IC50 read?
Answer: The IC50 was 1 to 10 µM.

Question: Which IC50 does the source give for `Cc1nn(CC2CCNCC2)cc1-c1c[nH]c2cc(F)ccc12` [Compound 56, 6-fluoro-3-(3-methyl-1-(piperidin-4-ylmethyl)-1H-pyrazol-4-yl)-1H-indole] here?
Answer: The IC50 was under 1 µM.

Question: For `CCS(=O)(=O)N1CCC(n2cc(-c3c[nH]c4cc(F)ccc34)cn2)CC1` [Compound 98, 3-(1-(1-(ethylsulfonyl)piperidin-4-yl)-1H-pyrazol-4-yl)-6-fluoro-1H-indole], which IC50 is on record?
Answer: Its IC50 is 1 to 10 µM.

Question: For `CC(=O)N1CCC(n2ncc(-c3c[nH]c4cc(F)ccc34)c2C)CC1` [Compound 95, 1-(4-(4-(6-fluoro-1H-indol-3-yl)-5-methyl-1H-pyrazol-1-yl)piperidin-1-yl)ethanone], which IC50 is on record?
Answer: Its IC50 is 1 to 10 µM.

Question: Which IC50 does the source give for `O=S(=O)(N1CCC(n2cc(-c3c[nH]c4cc(F)ccc34)cn2)CC1)C(F)(F)F` [Compound 92, 6-fluoro-3-(1-(1-((trifluoromethyl)sulfonyl)piperidin-4-yl)-1H-pyrazol-4-yl)-1H-indole] here?
Answer: Its IC50 is 1 to 10 µM.

Question: For `C=CC(=O)N1CCC(n2cc(-c3c[nH]c4cc(F)ccc34)cn2)CC1` [Compound 102, 1-(4-(4-(6-fluoro-1H-indol-3-yl)-1H-pyrazol-1-yl)piperidin-1-yl)prop-2-en-1-one], which IC50 is on record?
Answer: Its IC50 is 1 to 10 µM.

Question: For `Cc1nn(CC2CCNCC2)c(C)c1-c1c[nH]c2cc(F)ccc12` [Compound 55, 3-(3,5-dimethyl-1-(piperidin-4-ylmethyl)-1H-pyrazol-4-yl)-6-fluoro-1H-indole], which IC50 is on record?
Answer: Its IC50 is 10 to 100 µM.

Question: Which IC50 does the source give for `CC(C)S(=O)(=O)N1CCC(n2cc(-c3c[nH]c4cc(F)ccc34)cn2)CC1` [Compound 99, 6-fluoro-3-(1-(1-(isopropylsulfonyl)piperidin-4-yl)-1H-pyrazol-4-yl)-1H-indole] here?
Answer: Its IC50 is 1 to 10 µM.

Question: Which IC50 does the source give for `O=S(=O)(C1CC1)N1CCC(n2cc(-c3c[nH]c4cc(F)ccc34)cn2)CC1` [Compound 97, 3-(1-(1-(cyclopropylsulfonyl)piperidin-4-yl)-1H-pyrazol-4-yl)-6-fluoro-1H-indole] here?
Answer: The IC50 was 1 to 10 µM.

Question: For `Cc1nn(CCC(N)=O)c(C)c1-c1c[nH]c2cc(F)ccc12` [Compound 9, 3-(4-(6-fluoro-1H-indol-3-yl)-3,5-dimethyl-1H-pyrazol-1-yl)propanamide], which IC50 is on record?
Answer: The IC50 was 1 to 10 µM.

Question: Which IC50 does the source give for `NC(=O)CCn1cc(-c2c[nH]c3cc(F)c(F)cc23)cn1` [Compound 8, 3-(4-(5,6-difluoro-1H-indol-3-yl)-1H-pyrazol-1-yl)propanamide] here?
Answer: Its IC50 is 1 to 10 µM.

Question: Which IC50 does the source give for `COCCS(=O)(=O)N1CCC(n2cc(-c3c[nH]c4cc(F)ccc34)cn2)CC1` [Compound 96, 6-fluoro-3-(1-(1-((2-methoxyethyl)sulfonyl)piperidin-4-yl)-1H-pyrazol-4-yl)-1H-indole] here?
Answer: Its IC50 is 1 to 10 µM.

Question: For `Cc1nn(CCS(C)(=O)=O)c(C)c1-c1c[nH]c2cc(F)ccc12` [Compound 33, 3-(3,5-dimethyl-1-(2-(methylsulfonyl)ethyl)-1H-pyrazol-4-yl)-6-fluoro-1H-indole], which IC50 is on record?
Answer: The IC50 was 10 to 100 µM.

Question: For `CC(=O)N1CCC(n2cc(-c3c[nH]c4cc(F)ccc34)c(C)n2)CC1` [Compound 94, 1-(4-(4-(6-fluoro-1H-indol-3-yl)-3-methyl-1H-pyrazol-1-yl)piperidin-1-yl)ethanone], which IC50 is on record?
Answer: The IC50 was 10 to 100 µM.

Molecular target: T1, human TDO2
Test: Cellular assay for TDO2 activity, hTDO2-overexpressing P815 cells
Assay type: cell-based
Parameters: expressed in transfected cells; host or cells: murine mastocytoma P815 cells
Conditions: murine mastocytoma P815 cells overexpressing hTDO2, overnight incubation, kynurenine absorbance at 480 nm
Experimental: The assay was performed in 96-well flat bottom plates seeded with murine mastocytoma P815 cells overexpressing hTDO2 (prepared as described in Pilotte et al., PNAS, 2012, 109(7), 2497-2502), at a concentration of 5×10^4 cells/well in a final volume of 200 μL. To determine TDO or IDO activity, the cells were incubated overnight at 37° C. at 5% CO2 in IMDM (Invitrogen) supplemented with 2% FBS and 2% penicillin/streptomycin in the presence of the compounds of the present invention, at different concentrations.
The plates were then centrifuged 5 min at 1000 rpm, and 100 μL of the supernatant were collected in a conical plate, 30 uL of TCA 30% were added and a further centrifugated at 3000×g for 10 minutes. 100 μL of the supernatant were collected in a flat bottomed plate and 100 μL of 2% (w/v) 4-(dimethylamino)-benzaldehyde in acetic acid and incubated for 5 min at room temperature. Kynurenine concentrations were determined by measuring the absorbance at 480 nm. A standard curve was made with pure kynurenine. The TDO activity was measured as described above using ten serial concentrations of the compounds of the present invention. Data were fitted using the Prism software (GraphPad Software, Inc.).

Question: Which IC50 does the source give for `OC1(Cn2cc(-c3c[nH]c4cc(F)ccc34)cn2)CCOCC1` [Compound 59, 4-((4-(6-fluoro-1H-indol-3-yl)-1H-pyrazol-1-yl)methyl)tetrahydro-2H-pyran-4-ol] here?
Answer: Its IC50 is 1 to 10 µM.

Question: Which IC50 does the source give for `NC(=O)[C@H]1CC[C@H](n2cc(-c3c[nH]c4cc(F)ccc34)cn2)CC1` [Compound 67, (1R,4R)-4-(4-(6-fluoro-1H-indol-3-yl)-1H-pyrazol-1-yl)cyclohexanecarboxamide] here?
Answer: Its IC50 is 1 to 10 µM.

System: not given
Test: not given
Conditions: not given

Question: With `CS(=O)(=O)CCn1cc(-c2c[nH]c3cc(F)ccc23)cn1` [Compound 31, 6-fluoro-3-(1-(2-(methylsulfonyl)ethyl)-1H-pyrazol-4-yl)-1H-indole] as the compound, how does the melting point read?
Answer: The melting point was 153.3 to 155.1 °C.

Question: With `CC(C)(C)C(=O)N1CCC(n2cc(-c3c[nH]c4cc(F)ccc34)cn2)CC1` [Compound 87, 1-(4-(4-(6-fluoro-1H-indol-3-yl)-1H-pyrazol-1-yl)piperidin-1-yl)-2,2-dimethylpropan-1-one] as the compound, how does the melting point read?
Answer: The melting point was 231 to 232 °C.

Question: With `O=C(C1CC1)N1CCC(n2cc(-c3c[nH]c4cc(F)ccc34)cn2)CC1` [Compound 88, cyclopropyl(4-(4-(6-fluoro-1H-indol-3-yl)-1H-pyrazol-1-yl)piperidin-1-yl)methanone] as the compound, how does the melting point read?
Answer: Its melting point is 190.7 to 191.4 °C.

Question: For `Fc1cc2[nH]cc(-c3cnn(CC4CCNCC4)c3)c2cc1F` [Compound 44, 5,6-difluoro-3-(1-(piperidin-4-ylmethyl)-1H-pyrazol-4-yl)-1H-indole], which melting point is on record?
Answer: Its melting point is 167.1 to 168.9 °C.

Question: Which melting point does the source give for `Fc1ccc2c(-c3cnn(CC4CCOCC4)c3)c[nH]c2c1` [Compound 58, 6-fluoro-3-(1-((tetrahydro-2H-pyran-4-yl)methyl)-1H-pyrazol-4-yl)-1H-indole] here?
Answer: The melting point was 138.9 to 139.6 °C.

Question: With `CS(=O)(=O)CCn1cc(-c2c[nH]c3cc(F)c(F)cc23)cn1` [Compound 32, 5,6-difluoro-3-(1-(2-(methylsulfonyl)ethyl)-1H-pyrazol-4-yl)-1H-indole] as the compound, how does the melting point read?
Answer: The melting point was 170.6 to 171.9 °C.

Question: Which melting point does the source give for `CC(=O)NCCn1cc(-c2c[nH]c3cc(F)ccc23)cn1` [Compound 21, N-(2-(4-(6-fluoro-1H-indol-3-yl)-1H-pyrazol-1-yl)ethyl)acetamide] here?
Answer: Its melting point is 179.5 to 180.8 °C.

Question: For `Fc1ccc2c(-c3cnn(C4CCNCC4)c3)c[nH]c2c1` [Compound 78, 6-fluoro-3-(1-(piperidin-4-yl)-1H-pyrazol-4-yl)-1H-indole], which melting point is on record?
Answer: The melting point was 240.1 to 241.8 °C.

Question: For `CN1CCC(n2cc(-c3c[nH]c4cc(F)ccc34)cn2)CC1` [Compound 91, 6-fluoro-3-(1-(1-methylpiperidin-4-yl)-1H-pyrazol-4-yl)-1H-indole], which melting point is on record?
Answer: Its melting point is 222.8 to 223.7 °C.

Question: Which melting point does the source give for `CN(C)CC(=O)N1CCC(n2cc(-c3c[nH]c4cc(F)ccc34)cn2)CC1` [Compound 83, 2-(dimethylamino)-1-(4-(4-(6-fluoro-1H-indol-3-yl)-1H-pyrazol-1-yl)piperidin-1-yl)ethanone] here?
Answer: The melting point was 193.7 to 196.1 °C.

Question: With `CC(Cn1cc(-c2c[nH]c3cc(F)ccc23)cn1)C(N)=O` (single isomer, unassigned) [Compound 35, 3-(4-(6-fluoro-1H-indol-3-yl)-1H-pyrazol-1-yl)-2-methylpropanamide] as the compound, how does the melting point read?
Answer: The melting point was 184.5 to 185.5 °C.

Question: With `O=C(O)CCC(=O)N1CCC(n2cc(-c3c[nH]c4cc(F)ccc34)cn2)CC1` [Compound 80, 4-(4-(4-(6-fluoro-1H-indol-3-yl)-1H-pyrazol-1-yl)piperidin-1-yl)-4-oxobutanoic acid] as the compound, how does the melting point read?
Answer: The melting point was 226 to 228 °C.

Question: For `CNCCn1cc(-c2c[nH]c3cc(F)ccc23)cn1` [Compound 24, 2-(4-(6-fluoro-1H-indol-3-yl)-1H-pyrazol-1-yl)-N-methylethanamine], which melting point is on record?
Answer: The melting point was 94.2 to 95.2 °C.

Question: With `NC(=O)CCn1cc(-c2c[nH]c3cc(F)ccc23)cn1` [Compound 7, 3-(4-(6-fluoro-1H-indol-3-yl)-1H-pyrazol-1-yl)propanamide] as the compound, how does the melting point read?
Answer: Its melting point is 173.3 to 175 °C.

Question: Which melting point does the source give for `CC(C)C(=O)N1CCC(n2cc(-c3c[nH]c4cc(F)ccc34)cn2)CC1` [Compound 86, 1-(4-(4-(6-fluoro-1H-indol-3-yl)-1H-pyrazol-1-yl)piperidin-1-yl)-2-methylpropan-1-one] here?
Answer: The melting point was 210.2 to 211 °C.

Question: For `O=S1(=O)CCC(Cn2cc(-c3c[nH]c4cc(F)ccc34)cn2)CC1` [Compound 60, 4-((4-(6-fluoro-1H-indol-3-yl)-1H-pyrazol-1-yl)methyl)tetrahydro-2H-thiopyran 1,1-dioxide], which melting point is on record?
Answer: Its melting point is 193.1 to 194.1 °C.

Question: Which melting point does the source give for `CN(C)C(=O)N1CCC(n2cc(-c3c[nH]c4cc(F)ccc34)cn2)CC1` [Compound 90, 4-(4-(6-fluoro-1H-indol-3-yl)-1H-pyrazol-1-yl)-N,N-dimethylpiperidine-1-carboxamide] here?
Answer: The melting point was 223 to 224.6 °C.

Question: For `O=C(CO)N1CCC(n2cc(-c3c[nH]c4cc(F)ccc34)cn2)CC1` [Compound 84, 1-(4-(4-(6-fluoro-1H-indol-3-yl)-1H-pyrazol-1-yl)piperidin-1-yl)-2-hydroxyethanone], which melting point is on record?
Answer: Its melting point is 99.9 to 102.1 °C.
